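These data come from cells grown in 96-well plates and exposed to compound for 48 hours at five concentrations. TGI is the concentration that stops growth completely.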
Experiments:
Experiment in all cases: growth of human tumour cells (NCI), 48 h
NCI-H460 lung = system: NCI-H460 lung
T-47D breast = system: T-47D breast
HCT-116 colon = system: HCT-116 colon
COLO 205 colon = system: COLO 205 colon
DU-145 prostate = system: DU-145 prostate
UO-31 renal = system: UO-31 renal
HOP-62 NSCLC = system: HOP-62 NSCLC
U251 CNS = system: U251 CNS
A498 renal = system: A498 renal
SR leukemia = system: SR leukemia
EKVX NSCLC = system: EKVX NSCLC
RPMI-8226 leukemia = system: RPMI-8226 leukemia
NCI-H23 lung = system: NCI-H23 lung
KM12 colon = system: KM12 colon
SF-295 CNS = system: SF-295 CNS
MDA-MB-231 breast = system: MDA-MB-231 breast
SN12C renal = system: SN12C renal
HS 578T breast = system: HS 578T breast
TK-10 renal = system: TK-10 renal
SF-268 CNS = system: SF-268 CNS
M14 melanoma = system: M14 melanoma
HT29 colon = system: HT29 colon
786-0 renal = system: 786-0 renal
OVCAR-5 ovarian = system: OVCAR-5 ovarian
SK-MEL-2 melanoma = system: SK-MEL-2 melanoma
ACHN renal = system: ACHN renal
SNB-19 CNS = system: SNB-19 CNS
NCI-H226 lung = system: NCI-H226 lung
CCRF-CEM leukemia = system: CCRF-CEM leukemia
OVCAR-4 ovarian = system: OVCAR-4 ovarian
HOP-92 NSCLC = system: HOP-92 NSCLC
A549 NSCLC = system: A549 NSCLC
SK-MEL-28 melanoma = system: SK-MEL-28 melanoma
SNB-75 CNS = system: SNB-75 CNS
UACC-62 melanoma = system: UACC-62 melanoma
BT-549 breast = system: BT-549 breast
MOLT-4 leukemia = system: MOLT-4 leukemia
OVCAR-3 ovarian = system: OVCAR-3 ovarian
IGROV1 ovarian = system: IGROV1 ovarian
SK-OV-3 ovarian = system: SK-OV-3 ovarian
HCT-15 colon = system: HCT-15 colon
PC-3 prostate = system: PC-3 prostate
NCI/ADR-RES ovarian = system: NCI/ADR-RES ovarian
LOX IMVI melanoma = system: LOX IMVI melanoma
HL-60(TB) leukemia = system: HL-60(TB) leukemia
RXF 393 renal = system: RXF 393 renal
SW-620 colon = system: SW-620 colon
SF-539 CNS = system: SF-539 CNS
MDA-MB-435 = system: MDA-MB-435
MDA-N = system: MDA-N
MCF7 breast = system: MCF7 breast
HCC-2998 colon = system: HCC-2998 colon
UACC-257 melanoma = system: UACC-257 melanoma
K-562 leukemia = system: K-562 leukemia
OVCAR-8 ovarian = system: OVCAR-8 ovarian
NCI-H522 lung = system: NCI-H522 lung
CAKI-1 renal = system: CAKI-1 renal
SK-MEL-5 melanoma = system: SK-MEL-5 melanoma

Measured: TGI

Cc1cn(CCOCCOC(=O)NC(CCCN=C(N)N)C(=O)O)c(=O)[nH]c1=O (centres undefined)
not listed: OVCAR-8 ovarian | NCI-H522 lung | CAKI-1 renal | SK-MEL-5 melanoma
> 100 µM: all other assays above

NC(=O)NN=C1C[C@H]2CCCC[C@H]2C1
not listed: NCI-H23 lung | CCRF-CEM leukemia | RXF 393 renal
> 100 µM: all other assays above
